Measurements from DBAASP.

Tests used:
Experiment in all cases: ≥ marks a high value that may be exact or a test limit, other limits are often not marked, values filed in µg/mL are converted to µM
[1] = system: Aeromonas hydrophila IAM 12460
Bacillus cereus IAM 1110 = system: Bacillus cereus IAM 1110
[2] = system: Bacillus subtilis IAM 1071
[3] = system: Escherichia coli K-12 W3110
[4] = system: Micrococcus luteus IAM 1056
[5] = system: Proteus vulgaris IAM 12542
[6] = system: Streptococcus gordonii ATCC 10558
[7] = system: Streptococcus gordonii DL1
[8] = system: Streptococcus mutans ATCC 25175
[9] = system: Streptococcus mutans GS-5
Streptococcus mutans T8 = system: Streptococcus mutans T8
[10] = system: Streptococcus mutans UA159
[11] = system: Streptococcus mutans comD
[12] = system: Streptococcus sanguinis ATCC 49295
[13] = system: Streptococcus sanguinis NY101

| MIC [1] | MIC (Bacillus cereus IAM 1110) | MIC [2] | MIC [3] | MIC [4] | MIC [5] | MIC [6] | MIC [7] | MIC [8] | MIC [9] | MIC (Streptococcus mutans T8) | MIC [10] | MIC [11] | MIC [12] | MIC [13] | SMILES |
| --- | --- | --- | --- | --- | --- | --- | --- | --- | --- | --- | --- | --- | --- | --- | --- |
| 2.12 µM | 4.24 µM | 2.12 µM | 4.24 µM | 0.0665 µM | 2.12 µM | – | – | – | – | – | – | – | – | – | CC[C@H](C)[C@@H]1NC(=O)CNC(=O)[C@@H]2CSSC[C@@H]3NC(=O)[C@H](C(C)C)NC(=O)[C@H](CCCN=C(N)N)NC(=O)[C@H](CCCCN)NC(=O)[C@H](CCCCN)NC(=O)[C@H](CC(N)=O)NC(=O)[C@H](CSSC[C@H](NC(=O)[C@@H](NC(=O)[C@@H](N)Cc4ccccc4)[C@@H](C)O)C(=O)N[C@@H](CC(=O)O)C(=O)N[C@@H](C(C)C)C(=O)N[C@@H](CC(C)C)C(=O)N[C@@H](CO)C(=O)N[C@@H](C(C)C)C(=O)N[C@@H](CCC(=O)O)C(=O)N[C@@H](C)C(=O)N[C@@H](CCCCN)C(=O)NCC(=O)N[C@@H](C(C)C)C(=O)N[C@@H](CCCCN)C(=O)N[C@@H](CC(C)C)C(=O)N[C@@H](CC(N)=O)C(=O)N[C@@H](Cc4cnc[nH]4)C(=O)N[C@@H](C)C(=O)N[C@@H](C)C(=O)N2)NC(=O)[C@H](Cc2ccc(O)cc2)NC(=O)CNC(=O)CNC(=O)[C@H]([C@@H](C)O)NC(=O)[C@H](CCCN=C(N)N)NC(=O)[C@H](CCCN=C(N)N)NC(=O)[C@H](CCCN=C(N)N)NC(=O)[C@H](Cc2ccccc2)NC(=O)[C@H](CC(C)C)NC(=O)[C@H](CSSC[C@@H](C(=O)N[C@@H](CCCN=C(N)N)C(=O)O)NC(=O)[C@H]([C@@H](C)CC)NC3=O)NC(=O)[C@H](Cc2cnc[nH]2)NC1=O [FTCDVLSVEAKGVKLNHAACGIHCLFRRRTGGYCNKKRVCICR] |
| – | – | – | – | – | – | ≥ 233 µM | ≥ 60 µM | ≥ 60 µM | ≥ 233 µM | ≥ 60 µM | ≥ 233 µM | ≥ 60 µM | ≥ 233 µM | ≥ 60 µM | CC(C)C[C@H](NC(=O)[C@H](CCCN=C(N)N)NC(=O)[C@H](Cc1ccccc1)NC(=O)[C@H](Cc1ccccc1)NC(=O)[C@@H](N)[C@@H](C)O)C(=O)N[C@@H](Cc1ccccc1)C(=O)N[C@@H](CC(N)=O)C(=O)N[C@@H](CCCN=C(N)N)C(=O)O [TFFRLFNR] |
